# Assay results: patent publication US8106055B2, “Substituted amide compounds” (Gruenenthal GmbH, priority 2007, dated 2012)
# Molecular target: T1, human bradykinin 1 receptor (B1R) (Homo sapiens, UniProt P46663)
# T1 construct: expressed in transfected cells; host or cells: CHO K1 cells
# T1 sequence (P46663 1-353): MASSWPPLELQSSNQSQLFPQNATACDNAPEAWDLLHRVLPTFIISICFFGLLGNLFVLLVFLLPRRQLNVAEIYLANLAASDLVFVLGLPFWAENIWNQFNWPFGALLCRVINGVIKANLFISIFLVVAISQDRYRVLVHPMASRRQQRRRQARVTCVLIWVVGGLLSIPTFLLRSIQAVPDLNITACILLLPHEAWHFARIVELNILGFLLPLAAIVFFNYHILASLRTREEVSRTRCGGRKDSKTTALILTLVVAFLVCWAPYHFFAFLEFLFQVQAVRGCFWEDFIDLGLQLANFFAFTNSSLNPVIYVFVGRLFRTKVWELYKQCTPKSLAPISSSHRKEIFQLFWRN
# Assay: Functional investigation on the human bradykinin 1 receptor (B1R), Ca2+ FLIPR assay in CHO K1 hB1R cells
# Assay type: cell-based
# Conditions: B1R antagonism human; test substance 10 μM; Ca2+ FLIPR, CHO K1 hB1R cells
# Method in brief: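 Peak Ca2+-dependent fluorescence in B1R-transfected CHO K1 cells measures antagonism of an EC80 agonist challenge given 10-20 min after compound. Agonist is Lys-Des-Arg9-bradykinin for human, Des-Arg9-bradykinin for rat receptor.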
row,SMILES,B1R Ant. h [10 μM] % Inhibition [%]
1,"COc1cc(C)c(S(=O)(=O)N(C)CCOCC(=O)NC2CCC(C(c3ccccc3)N(C)C)CC2)c(C)c1C (stereo not drawn) [Example 80, N-(4-((dimethylamino) (phenyl)methyl)cyclohexyl)-2-(2-(4-methoxy-N,2,3,6-tetramethylphenylsulfonamido)ethoxy)acetamide]",98

# Same assay, conditions: CHO-K1, B1R antagonism human; test substance 10 μM; Ca2+ FLIPR, CHO K1 hB1R cells; read-out: B1R Ant. h [10 μM] % Inhibition
row,SMILES,inhibition at 10 µM [%]
1,"COc1cc(C)c(S(=O)(=O)N2CCN(CCOCC(=O)NCC3CCC(C(c4ccccc4)N(C)C)CC3)CC2)c(C)c1C (stereo not drawn) [Example 61, N-((4-((dimethylamino)(phenyl)methyl)cyclohexyl)methyl)-2-(2-(4-(4-methoxy-2,3,6-trimethylphenylsulfonyl)piperazin-1-yl)ethoxy)acetamide]",63
2,"COc1ccc(S(=O)(=O)N2CCCCC2CCOCC(=O)NC2CCC(C(c3cccc(F)c3)N(C)C)CC2)cc1 (stereo not drawn) [Example 62, N-(4-((dimethylamino)(3-fluorophenyl)methyl)cyclohexyl)-2-(2-(1-(4-methoxyphenylsulfonyl)piperidin-2-yl)ethoxy)acetamide]",40
3,"Cc1cc(C)c(S(=O)(=O)N2CCC(OCC(=O)NC3CCC(C(c4ccccc4)N(C)C)CC3)C2)c(C)c1 (stereo not drawn) [Example 64, N-(4-((dimethylamino)(phenyl)methyl)cyclohexyl)-2-(1-(mesitylsulfonyl)pyrrolidin-3-yloxy)acetamide]",60
4,"CN(C)C(c1cccs1)C1CCC(CCNC(=O)COCCN(C)S(=O)(=O)c2ccc(OC(F)(F)F)cc2)CC1 (stereo not drawn) [Example 65, N-(2-(4-((dimethylamino)(thiophen-2-yl)methyl)cyclohexyl)ethyl)-2-(2-(N-methyl-4-(trifluoromethoxy)phenylsulfonamido)ethoxy)acetamide]",12
5,"CN(C)C(c1cccs1)C1CCC(CCNC(=O)COC2CCN(S(=O)(=O)c3ccc(Cl)cc3)C2)CC1 (stereo not drawn) [Example 66, 2-(1-(4-chlorophenylsulfonyl)pyrrolidin-3-yloxy)-N-(2-(4-((dimethylamino)(thiophen-2-yl)methyl)cyclohexyl)ethyl)acetamide]",-1
6,"Cc1ccc(S(=O)(=O)N2CCC(OCC(=O)NCC3CCC(C(c4cccs4)N(C)C)CC3)C2)cc1 (stereo not drawn) [Example 68, N-((4-((dimethylamino)(thiophen-2-yl)methyl)cyclohexyl)methyl)-2-(1-tosylpyrrolidin-3-yloxy)acetamide]",18
7,"COc1cc(C)c(S(=O)(=O)N(C)CCOCC(=O)NCC2CCC(C(c3cccs3)N(C)C)CC2)c(C)c1 (stereo not drawn) [Example 69, N-((4-((dimethylamino)(thiophen-2-yl)methyl)cyclohexyl)methyl)-2-(2-(4-methoxy-N,2,6-trimethylphenylsulfonamido)ethoxy)acetamide]",104
8,"CN(C)C(c1cccc(F)c1)C1CCC(CNC(=O)COCCN(C)S(=O)(=O)c2ccc(Cl)cc2Cl)CC1 (stereo not drawn) [Example 70, 2-(2-(2,4-dichloro-N-methylphenylsulfonamido)ethoxy)-N-((4-((dimethylamino)(3-fluorophenyl)methyl)cyclohexyl)methyl)acetamide]",98
9,"Cc1cc(C)c(S(=O)(=O)N2CCC(OCC(=O)NCCC3CCC(C(c4cccs4)N(C)C)CC3)C2)c(C)c1 (stereo not drawn) [Example 71, N-(2-(4-((dimethylamino)(thiophen-2-yl)methyl)cyclohexyl)ethyl)-2-(1-(mesitylsulfonyl)pyrrolidin-3-yloxy)acetamide]",84
10,"CN(C)C(c1cccc(F)c1)C1CCC(CNC(=O)COCCN(C)S(=O)(=O)c2c(Cl)cccc2Cl)CC1 (stereo not drawn) [Example 72, 2-(2-(2,6-dichloro-N-methylphenylsulfonamido)ethoxy)-N-((4-((dimethylamino)(3-fluorophenyl)methyl)cyclohexyl)methyl)acetamide]",94
11,"COc1ccc(S(=O)(=O)N(C)CCOCC(=O)NC2CCC(C(c3cccs3)N(C)C)CC2)cc1 (stereo not drawn) [Example 73, N-(4-((dimethylamino)(thiophen-2-yl)methyl)cyclohexyl)-2-(2-(4-methoxy-N-methylphenylsulfonamido)ethoxy)acetamide]",11
12,"COc1cc(C)c(S(=O)(=O)N2CCC(OCC(=O)NCCC3CCC(C(c4cccs4)N(C)C)CC3)C2)c(C)c1C (stereo not drawn) [Example 74, N-(2-(4-((dimethylamino)(thiophen-2-yl)methyl)cyclohexyl)ethyl)-2-(1-(4-methoxy-2,3,6-trimethylphenylsulfonyl)pyrrolidin-3-yloxy)acetamide]",66
13,"COc1cc(C)c(S(=O)(=O)N2CCC(CCOCC(=O)NCCC3CCC(C(c4cccs4)N(C)C)CC3)CC2)c(C)c1C (stereo not drawn) [Example 75, N-(2-(4-((dimethylamino)(thiophen-2-yl)methyl)cyclohexyl)ethyl)-2-(2-(1-(4-methoxy-2,3,6-trimethylphenylsulfonyl)piperidin-4-yl)ethoxy)acetamide]",15
14,"COc1cc(C)c(S(=O)(=O)N2CCN(CCOCC(=O)NC3CCC(C(c4cccc(F)c4)N(C)C)CC3)CC2)c(C)c1C (stereo not drawn) [Example 76, N-(4-((dimethylamino)(3-fluorophenyl)methyl)cyclohexyl)-2-(2-(4-(4-methoxy-2,3,6-trimethylphenylsulfonyl)piperazin-1-yl)ethoxy)acetamide]",52
15,"COc1ccc(S(=O)(=O)N2CCCC2COCC(=O)NCCC2CCC(C(c3cccs3)N(C)C)CC2)cc1 (stereo not drawn) [Example 77, N-(2-(4-((dimethylamino)(thiophen-2-yl)methyl)cyclohexyl)ethyl)-2-((1-(4-methoxyphenylsulfonyl)pyrrolidin-2-yl)methoxy)acetamide]",41
16,"CN(C)C(c1ccccc1)C1CCC(CNC(=O)COC2CCCCC2N(C)S(=O)(=O)c2ccc(Cl)c(Cl)c2)CC1 (stereo not drawn) [Example 78, 2-(2-(3,4-dichloro-N-methylphenylsulfonamido)cyclohexyloxy)-N-((4-((dimethylamino)(phenyl)methyl)cyclohexyl)methyl)acetamide]",51
17,"CN(C)C(c1ccccc1)C1CCC(CNC(=O)COC2CCN(S(=O)(=O)c3ccc(Cl)cc3)C2)CC1 (stereo not drawn) [Example 81, 2-(1-(4-chlorophenylsulfonyl)pyrrolidin-3-yloxy)-N-((4-((dimethylamino)(phenyl)methyl)cyclohexyl)methyl)acetamide]",-10
18,"Cc1ccc(S(=O)(=O)N(C)CCOCC(=O)NCCC2CCC(C(c3cccs3)N(C)C)CC2)cc1 (stereo not drawn) [Example 82, N-(2-(4-((dimethylamino)(thiophen-2-yl)methyl)cyclohexyl)ethyl)-2-(2-(N,4-dimethylphenylsulfonamido)ethoxy)acetamide]",-2
19,"CN(C)C(c1cccs1)C1CCC(NC(=O)COCCN(C)S(=O)(=O)c2ccc(Cl)cc2)CC1 (stereo not drawn) [Example 83, 2-(2-(4-chloro-N-methylphenylsulfonamido)ethoxy)-N-(4-((dimethylamino) (thiophen-2-yl)methyl)cyclohexyl)acetamide]",7
20,"COc1cc(C)c(S(=O)(=O)N(C)CCOCC(=O)NCCC2CCC(C(c3cccs3)N(C)C)CC2)c(C)c1 (stereo not drawn) [Example 84, N-(2-(4-((dimethylamino)(thiophen-2-yl)methyl)cyclohexyl)ethyl)-2-(2-(4-methoxy-N,2,6-trimethylphenylsulfonamido)ethoxy)acetamide]",104
21,"CN(C)C(c1cccs1)C1CCC(CCNC(=O)COCCN(C)S(=O)(=O)c2ccc(F)cc2)CC1 (stereo not drawn) [Example 85, N-(2-(4-((dimethylamino)(thiophen-2-yl)methyl)cyclohexyl)ethyl)-2-(2-(4-fluoro-N-methylphenylsulfonamido)ethoxy)acetamide]",7
22,"COc1cc(C)c(S(=O)(=O)N2CCC(OCC(=O)NCC3CCC(C(c4cccs4)N(C)C)CC3)C2)c(C)c1 (stereo not drawn) [Example 86, N-((4-((dimethylamino)(thiophen-2-yl)methyl)cyclohexyl)methyl)-2-(1-(4-methoxy-2,6-dimethylphenylsulfonyl)pyrrolidin-3-yloxy)acetamide]",98
23,"CN(C)C(c1cccc(F)c1)C1CCC(CNC(=O)COCC2CCCCN2S(=O)(=O)c2ccc(Cl)c(Cl)c2)CC1 (stereo not drawn) [Example 87, 2-((1-(3,4-dichlorophenylsulfonyl)piperidin-2-yl)methoxy)-N-((4-((dimethylamino)(3-fluorophenyl)methyl)cyclohexyl)methyl)acetamide]",57
24,"COc1ccc(S(=O)(=O)N2CCCCC2COCC(=O)NCC2CCC(C(c3ccccc3)N(C)C)CC2)cc1 (stereo not drawn) [Example 88, N-((4-((dimethylamino)(phenyl)methyl)cyclohexyl)methyl)-2-((1-(4-methoxyphenylsulfonyl)piperidin-2-yl)methoxy)acetamide]",80
25,"COc1ccc(S(=O)(=O)N2CCCCC2CCOCC(=O)NCC2CCC(C(c3ccccc3)N(C)C)CC2)cc1 (stereo not drawn) [Example 89, N-((4-((dimethylamino)(phenyl)methyl)cyclohexyl)methyl)-2-(2-(1-(4-methoxyphenylsulfonyl)piperidin-2-yl)ethoxy)acetamide]",42

# Same assay, conditions: CHO-K1, read-out: B1R Ant. h [10 μM] % Inhibition
row,SMILES,inhibition at 10 µM [%]
1,"CN(C)C(c1ccccc1)C1CCC(CNC(=O)COC2CCN(S(=O)(=O)c3ccc(Cl)cc3Cl)C2)CC1 (stereo not drawn) [Example 67, 2-(1-(2,4-dichlorophenylsulfonyl)pyrrolidin-3-yloxy)-N-((4-((dimethylamino)(phenyl)methyl)cyclohexyl)methyl)acetamide]",48
